Tests used:
Type in all cases: functional
OVCAR-3 = assay: Cytotoxicity against Homo sapiens (human) OVCAR3 cells after 48 hr by sulforhodamine B assay; conditions: OVCAR-3, 48 h
HT-29 = assay: Cytotoxicity against Homo sapiens (human) HT-29 cells after 48 hr by sulforhodamine B assay; conditions: HT-29, 48 h
SK-MEL-5 = assay: Cytotoxicity against Homo sapiens (human) SK-MEL-5 cells after 48 hr by sulforhodamine B assay; conditions: SK-MEL-5, 48 h
MCF7 [1] = assay: Cytotoxicity against Homo sapiens (human) MCF7 cells after 48 hr by sulforhodamine B assay; conditions: MCF7, 48 h
NCI-H322M = assay: Cytotoxicity against Homo sapiens (human) NCI-H322M cells after 48 hr by sulforhodamine B assay
BT-549 = assay: Cytotoxicity against Homo sapiens (human) BT549 cells after 48 hr by sulforhodamine B assay; conditions: BT-549, 48 h
HOP-62 = assay: Cytotoxicity against Homo sapiens (human) HOP62 cells after 48 hr by sulforhodamine B assay; conditions: HOP-62, 48 h
UO-31 = assay: Cytotoxicity against Homo sapiens (human) UO31 cells after 48 hr by sulforhodamine B assay; conditions: UO-31, 48 h
SF-268 = assay: Cytotoxicity against Homo sapiens (human) SF268 cells after 48 hr by sulforhodamine B assay; conditions: SF-268, 48 h
IGROV-1 = assay: Cytotoxicity against Homo sapiens (human) IGROV1 cells after 48 hr by sulforhodamine B assay; conditions: IGROV-1, 48 h
NCI-H460 = assay: Cytotoxicity against Homo sapiens (human) NCI-H460 cells after 48 hr by sulforhodamine B assay; conditions: NCI-H460, 48 h
[2] = Cytotoxicity against Homo sapiens (human) NCI-ADR-RES cells after 48 hr by sulforhodamine B assay
SK-OV-3 = assay: Cytotoxicity against Homo sapiens (human) SKOV3 cells after 48 hr by sulforhodamine B assay; conditions: SK-OV-3, 48 h
RXF 393 = assay: Cytotoxicity against Homo sapiens (human) RXF393 cells after 48 hr by sulforhodamine B assay; conditions: RXF 393, 48 h
SK-MEL-2 = assay: Cytotoxicity against Homo sapiens (human) SK-MEL-2 cells after 48 hr by sulforhodamine B assay; conditions: SK-MEL-2, 48 h
HCC 2998 = assay: Cytotoxicity against Homo sapiens (human) HCC2998 cells after 48 hr by sulforhodamine B assay; conditions: HCC 2998, 48 h
CAKI-1 = assay: Cytotoxicity against Homo sapiens (human) Caki1 cells after 48 hr by sulforhodamine B assay; conditions: CAKI-1, 48 h
T47D = assay: Cytotoxicity against Homo sapiens (human) T47D cells after 48 hr by sulforhodamine B assay
M14 = assay: Cytotoxicity against Homo sapiens (human) M14 cells after 48 hr by sulforhodamine B assay; conditions: M14, 48 h
U-251 = assay: Cytotoxicity against Homo sapiens (human) U251 cells after 48 hr by sulforhodamine B assay; conditions: U-251, 48 h
MCF7 [3] = assay: Cytotoxicity against Homo sapiens (human) MCF7 cells assessed as cell growth at 10^-4 M after 48 hr by Alamar blue assay; conditions: MCF7, 48 h, read-out: Activity
SF-295 = assay: Cytotoxicity against Homo sapiens (human) SF295 cells after 48 hr by sulforhodamine B assay; conditions: SF-295, 48 h
OVCAR-5 = assay: Cytotoxicity against Homo sapiens (human) OVCAR5 cells after 48 hr by sulforhodamine B assay; conditions: OVCAR-5, 48 h
OVCAR-8 = assay: Cytotoxicity against Homo sapiens (human) OVCAR8 cells after 48 hr by sulforhodamine B assay; conditions: OVCAR-8, 48 h
NCI-H23 = assay: Cytotoxicity against Homo sapiens (human) NCI-H23 cells after 48 hr by sulforhodamine B assay; conditions: NCI-H23, 48 h
EKVX = assay: Cytotoxicity against Homo sapiens (human) EKVX cells after 48 hr by sulforhodamine B assay
PC-3 = assay: Cytotoxicity against Homo sapiens (human) PC3 cells after 48 hr by sulforhodamine B assay; conditions: PC-3, 48 h
[4] = read-out: LC50 (the source's name)

SMILES: ClCc1ccc(Cn2cnc3ncnc(Cl)c32)cc1
- GI50 (OVCAR-3): 1.81 µM
- LC50 (OVCAR-3): 6.3 µM
- TGI (OVCAR-3): 3.38 µM
- GI50 (HT-29): 1.23 µM
- TGI (HT-29): 3.63 µM
- CC50 (HT-29; [4]): 56.2 µM
- GI50 (SK-MEL-5): 2.81 µM
- LC50 (SK-MEL-5): 34.7 µM
- TGI (SK-MEL-5): 12 µM
- GI50 (MCF7 [1]): 1.34 µM
- LC50 (concentration killing 50% of cells) (MCF7 [1]): 6.45 µM
- TGI (MCF7 [1]): 2.95 µM
- GI50 (NCI-H322M): 1.62 µM
- TGI (NCI-H322M): 3.01 µM
- CC50 (NCI-H322M; [4]): 5.62 µM
- GI50 (BT-549): 3.71 µM
- LC50 (50% lethal concentration) (BT-549): 56.2 µM
- TGI (BT-549): 17 µM
- GI50 (HOP-62): 1.77 µM
- TGI (HOP-62): 3.16 µM
- CC50 (HOP-62; [4]): 5.62 µM
- GI50 (UO-31): 4.78 µM
- LC50 (concentration causing 50% net cell kill) (UO-31): > 100 µM
- TGI (UO-31): 66.1 µM
- GI50 (SF-268): 1.65 µM
- TGI (SF-268): 3.38 µM
- CC50 (SF-268; [4]): 7.07 µM
- GI50 (IGROV-1): 7.58 µM
- LC50 (IGROV-1): > 100 µM
- TGI (IGROV-1): 30.9 µM
- GI50 (NCI-H460): 1.77 µM
- TGI (NCI-H460): 4.26 µM
- CC50 (NCI-H460; [4]): 17.4 µM
- GI50 [2]: 1.81 µM
- LC50 (concentration killing 50% of cells) [2]: 15.5 µM
- TGI [2]: 4.67 µM
- GI50 (SK-OV-3): 11.2 µM
- LC50 (SK-OV-3): 47.9 µM
- TGI (SK-OV-3): 23.4 µM
- GI50 (RXF 393): 1.65 µM
- TGI (RXF 393): 4.16 µM
- CC50 (RXF 393; [4]): 12 µM
- GI50 (SK-MEL-2): 6.3 µM
- LC50 (concentration killing 50% of cells) (SK-MEL-2): > 100 µM
- TGI (SK-MEL-2): > 100 µM
- GI50 (HCC 2998): 1.41 µM
- TGI (HCC 2998): 2.88 µM
- CC50 (HCC 2998; [4]): 5.75 µM
- GI50 (CAKI-1): 1.99 µM
- TGI (CAKI-1): 4.46 µM
- CC50 (CAKI-1; [4]): 9.77 µM
- GI50 (T47D): 1.28 µM
- LC50 (T47D): 6.3 µM
- TGI (T47D): 2.88 µM
- GI50 (M14): 2.75 µM
- LC50 (M14): 37.1 µM
- TGI (M14): 13.2 µM
- GI50 (U-251): 1.09 µM
- LC50 (concentration killing 50% of cells) (U-251): 4.78 µM
- TGI (U-251): 2.29 µM
- growth at 100 µM (MCF7 [3]): 23%
- GI50 (SF-295): 2.04 µM
- TGI (SF-295): 5.01 µM
- CC50 (SF-295; [4]): 17 µM
- GI50 (OVCAR-5): 6.3 µM
- TGI (OVCAR-5): 19.5 µM
- CC50 (OVCAR-5; [4]): 45.7 µM
- GI50 (OVCAR-8): 3.16 µM
- LC50 (concentration killing 50% of cells) (OVCAR-8): 56.2 µM
- TGI (OVCAR-8): 11 µM
- GI50 (NCI-H23): 15.8 µM
- TGI (NCI-H23): 30.9 µM
- CC50 (NCI-H23; [4]): 58.9 µM
- GI50 (EKVX): 2.23 µM
- TGI (EKVX): 4.46 µM
- CC50 (EKVX; [4]): 8.7 µM
- GI50 (PC-3): 1.58 µM
- LC50 (concentration causing 50% cell kill) (PC-3): 5.37 µM
- TGI (PC-3): 2.95 µM
